Data taken from patent publication US9006185B2, “Use of cell-permeable peptide inhibitors of the JNK signal transduction pathway for the treatment of various diseases” (Xigen Inflammation Ltd., priority 2008, dated 2015).
“Also recorded” adds a separate entry of the source.

Test system: Aβ1-40 and Aβ1-42
Experiment: Aβ1-40 and Aβ1-42 ELISA in brain homogenate fractions and CSF of hAPP Tg mice
Assay type: in vivo
Experimental: iv) Treatment • Forty female hAPP transgenic mice were treated with either 0.1 mg/kg b.w./every two weeks or 10 mg/kg b.w./every three weeks of the test substance XG-102 (SEQ ID NO: 11) in two different dosages (n=12/group) or treated with the vehicle (n=12) s.c. once every three weeks over four months.
vi) Tissue Sampling • At the end of the treatment period, and following all behavioral testing, all remaining mice (n=28) were sacrificed. Therefore, all mice were sedated by standard inhalation anesthesia (Isofluran, Baxter) as described in SOP MET030. Cerebrospinal fluid (CSF) was obtained by blunt dissection and exposure of the foramen magnum. Upon exposure, a Pasteur pipette was inserted to the approximate depth of 0.3-1 mm into the foramen magnum. CSF was collected by suctioning and capillary action until flow fully ceases. Two aliquots of each sample were immediately frozen and kept at −80° C. until ready for further analysis with ELISA technique. After CSF sampling, each mouse was placed in dorsal recumbence, thorax was opened and a 26-gauge needle attached to a 1 cc syringe was inserted into the right cardiac ventricular chamber. Light suction was applied to the needle and blood was collected into EDTA and consequently used to obtain plasma. To get plasma, blood samples from each mouse were spun at 1,750 rpm (700 g) for 10 minutes in a centrifuge (GS-6R Beckman) using a rotor with swing buckets (GH—3.8 Beckman). Plasma was frozen and stored at −20° C. until further analysis. After blood sampling transgenic mice were intracardially perfused with 0.9% sodium chloride. Brains were rapidly removed the cerebellum was cut off. The right hemispheres of all mice were immersion fixed in freshly produced 4% Paraformaldehyde/PBS (pH 7.4) for one hour at room temperature. Thereafter brains were transferred to a 15% sucrose PBS solution for 24 hours to ensure cryoprotection. […]
vii) Determination of Aβ1-40 and Aβ1-42 • In four different brain homogenate fractions of each Tg mouse as well as in CSF samples the Aβ1-40 and Aβ1-42 levels were evaluated with ELISA technique. […]

## CC(C)C[C@@H](NC(=O)[C@@H](Cc1ccccc1)NC(=O)[C@H]1CCCN1C(=O)[C@@H](CCC(N)=O)NC(=O)[C@H](NC(=O)[C@H]1CCCN1C(=O)[C@@H](CCCNC(=N)N)NC(=O)[C@@H](CO)NC(=O)[C@@H](CCC(N)=O)NC(=O)[C@H](N)CC(=O)O)C(C)C)C(=O)N[C@H](CC(N)=O)C(=O)N[C@H](CC(C)C)C(=O)N[C@@H](C(=O)N[C@@H](C(=O)N1CCC[C@@H]1C(=O)N[C@H](CCCNC(=N)N)C(=O)N[C@H](CCCCN)C(=O)N1CCC[C@@H]1C(=O)N[C@H](CCCNC(=N)N)C(=O)N1CCC[C@@H]1C(=O)N1CCC[C@@H]1C(=O)N[C@H](CCCNC(=N)N)C(=O)N[C@H](CCCNC(=N)N)C(=O)N[C@H](CCCNC(=N)N)C(=O)N[C@H](CCC(N)=O)C(=O)N[C@H](CCCNC(=N)N)C(=O)N[C@H](CCCNC(=N)N)C(=O)N[C@H](CCCCN)C(=O)N[C@H](CCCCN)C(=O)N[C@H](CCCNC(=N)N)C(=O)NCC(=O)O)[C@H](C)O)[C@H](C)O [XG-102]
Both dosages
  brain homogenate Aβ1-40 levels: did not affect brain homogenate Aβ1-40 levels
Both dosages, p<0.01 10 mg/kg, <0.05 low dosage
  CSF Aβ1-40 and Aβ1-42 levels: a significant decrease of Aβ1-40 and Aβ1-42 in CSF; also recorded: significantly decreased in CSF compared to vehicle group
Low dose 0.1 mg/kg, p<0.05 vs vehicle
  Aβ1-42 level in Triton X-100 fraction: a significant reduction compared to the vehicle group
